The values below come from patent US10501518B2 (priority 2013, dated 2019).

The target in assay [1] is T1, WT human PTHR-1 (Homo sapiens, UniProt Q03431).
T1 construct: bioactivity of the resulting compound in full-length hPTHR-1 and a truncated version; expressed in transfected cells
T1 sequence (Q03431 27-593): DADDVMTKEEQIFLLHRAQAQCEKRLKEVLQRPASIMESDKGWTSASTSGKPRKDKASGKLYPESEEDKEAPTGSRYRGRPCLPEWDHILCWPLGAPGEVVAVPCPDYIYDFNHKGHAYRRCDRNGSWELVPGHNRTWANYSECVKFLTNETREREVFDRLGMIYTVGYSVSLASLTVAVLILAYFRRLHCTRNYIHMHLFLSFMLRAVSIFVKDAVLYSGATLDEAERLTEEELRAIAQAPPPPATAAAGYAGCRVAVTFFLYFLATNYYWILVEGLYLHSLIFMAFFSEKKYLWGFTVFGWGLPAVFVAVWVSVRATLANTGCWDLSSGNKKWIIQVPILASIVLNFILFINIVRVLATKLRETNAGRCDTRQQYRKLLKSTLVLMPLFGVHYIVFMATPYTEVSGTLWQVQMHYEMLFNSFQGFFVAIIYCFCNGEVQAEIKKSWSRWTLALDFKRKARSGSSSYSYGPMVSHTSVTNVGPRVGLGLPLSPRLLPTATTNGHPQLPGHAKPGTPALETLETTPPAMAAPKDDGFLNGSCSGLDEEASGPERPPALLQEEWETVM
The assay is described as follows: cAMP GloSensor dose-response in GP-2.3 cells expressing human PTHR-1. Format: cell-based. As to conditions: for cAMP (hPTHR-1) Max: luminescence counts per second relative to PTH(1-34); for cAMP (hPTHR-1) Max / Max: 12-16 minutes after ligand addition; for Fold nM PTH(1-34): EC50 relative to PTH(1-34). The essentials: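 Confluent cells preloaded with 0.5 mM d-luciferin at room temperature until luminescence baseline stabilised (30 min), then given varying agonist concentrations. Luminescence time course recorded after α/β-peptide addition. Means ±SEM of n>4 experiments, each in duplicate.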

Assay [2] has as its target T2, WT rat PTHR-1 (Rattus norvegicus, UniProt P25961).
T2 construct: expressed in transfected cells
T2 sequence (P25961 27-591): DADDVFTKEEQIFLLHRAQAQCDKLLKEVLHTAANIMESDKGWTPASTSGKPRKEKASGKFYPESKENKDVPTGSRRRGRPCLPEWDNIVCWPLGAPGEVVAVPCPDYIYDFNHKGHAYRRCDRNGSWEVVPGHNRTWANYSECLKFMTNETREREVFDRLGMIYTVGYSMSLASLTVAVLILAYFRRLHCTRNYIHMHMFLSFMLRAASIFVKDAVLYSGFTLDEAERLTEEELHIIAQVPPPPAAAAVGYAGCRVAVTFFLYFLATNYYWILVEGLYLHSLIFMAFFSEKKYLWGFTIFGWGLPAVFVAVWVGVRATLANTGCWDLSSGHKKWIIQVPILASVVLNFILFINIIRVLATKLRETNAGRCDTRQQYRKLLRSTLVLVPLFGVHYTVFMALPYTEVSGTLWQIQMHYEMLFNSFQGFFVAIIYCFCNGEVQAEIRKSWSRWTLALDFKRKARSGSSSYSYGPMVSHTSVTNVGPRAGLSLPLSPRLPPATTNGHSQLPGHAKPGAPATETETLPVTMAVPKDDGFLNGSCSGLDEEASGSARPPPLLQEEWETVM
The assay is described as follows: cAMP GloSensor dose-response in GR-35 cells expressing rat PTHR-1. The class given is cell-based. As to conditions: for cAMP (rPTHR-1) Max / EC50: Table 2; for cAMP (rPTHR-1) Max: luminescence counts per second relative to PTH(1-34); for cAMP (rPTHR-1) Max / Max: 12-16 minutes after ligand addition; for EC50: read-out: cAMP (rPTHR-1) EC50; for Fold nM PTH(1-34) / Max: Table 7; for Fold nM PTH(1-34): EC50 relative to PTH(1-34); for Max: GR-35 cells, mean ± SEM.

Assay [3] in a line: Calcemic response in mice after subcutaneous injection. The class given is in vivo. The settings on record: 20 nmol/kg. Here is the method:
Compound concentrations were determined by submitting plasma to a cAMP GloSensor assay, quantification of luminescence readout, and conversion to peptide concentration via standard curve. […] See also FIGS. 12A, 12B and 12C.
Mice (C57BL/6, male, age 9-12 weeks) were treated in accordance with the ethical guidelines adopted by Massachusetts General Hospital. […] Blood was withdrawn just prior to injection (t=0) or at times thereafter. Tail vein blood was collected and immediately used for analysis. Blood Ca^2+ concentration was measured with a Chiron Diagnostics model 634 Ca^2+/pH analyzer.

In assay [4] the test system is PTH2R/PTH1R. The assay is described as follows: cAMP response selectivity between PTH2R and PTH1R. The class given is cell-based. As to conditions: most selective; for cAMP response PTH1R/PTH2R: Table 17. The source says: Selected analogs containing beta-amino acid substitutions selectively signal through one or the other of the two receptors. Without being bound to any underling biological phenomenon or mechanism, PTHR-2 likely serves an alternative function to PTHR-1 as it is highly expressed in the central nervous system. In contrast, PTHR-1 is highly expressed in bone and kidney, but not in the CNS. The analogs disclosed herein are thus useful as therapeutic compounds that a specific agonists or antagonists of PTHR-1 and PTHR-2.

Setting [5] is: Table 6, GP-2.3 cells, mean ± SEM.

`CC[C@H](C)[C@H](NC(=O)[C@H](CCC(=O)O)NC(=O)[C@H](CO)NC(=O)[C@@H](NC(=O)[C@@H](N)CO)C(C)C)C(=O)N[C@@H](CCC(N)=O)C(=O)N[C@@H](CC(C)C)C(=O)N[C@@H](CCSC)C(=O)N[C@@H](Cc1c[nH]cn1)C(=O)N[C@@H](CC(N)=O)C(=O)N[C@@H](CC(C)C)C(=O)NCC(=O)N[C@@H](CCCCN)C(=O)N[C@@H](Cc1c[nH]cn1)C(=O)N[C@@H](CC(C)C)C(=O)N[C@@H](CC(N)=O)CC(=O)N[C@@H](CO)C(=O)N[C@@H](CCSC)C(=O)N[C@@H](CCC(=O)O)C(=O)N[C@@H](CCCNC(=N)N)CC(=O)N[C@H](C(=O)N[C@@H](CCC(=O)O)C(=O)N[C@@H](Cc1c[nH]c2ccccc12)C(=O)N[C@H](CC(=O)N[C@@H](CCCNC(=N)N)C(=O)N[C@@H](CCCCN)C(=O)N[C@@H](CCCCN)C(=O)N[C@H](CC(=O)N[C@@H](CCC(N)=O)C(=O)N[C@@H](CC(=O)O)C(=O)N[C@H](C(=O)N[C@@H](CCC(N)=O)CC(=O)N[C@@H](CC(N)=O)C(=O)N[C@@H](Cc1ccccc1)C(N)=O)C(C)C)CC(C)C)CC(C)C)C(C)C` [B5]: the concentration for a half-maximal effect (EC50) in assay [1] (Table 1, GP-2.3 cells, read-out: cAMP (hPTHR-1) EC50) is 0.11 nM; in assay [2] it was 1.45 nM. For the same compound, the “cAMP (hPTHR-1) Max” value in assay [1] (Table 1) was 0.98. Moreover, the “Fold nM PTH(1-34)” value amounted to 0.63 in assay [1] (Table 6) and 3.49 in assay [2]. The values for the Max in assay [1] (setting [5]) and in assay [2] were 212 ± 30 luminescence counts per second × 10^−3 and 51 ± 21 luminescence counts per second × 10−3, respectively. In addition, the “cAMP (rPTHR-1) Max” value in assay [2] amounted to 0.78. Moreover, the “calcemic response (blood Ca^2+ concentration)” value (shortened to “calcemic response”) in assay [3] is recorded as “more transient rise in Ca^2+ concentration relative to PTH(1-34)”. In addition, the “cAMP response PTH1R/PTH2R” value in assay [4] worked out at 43.

Regarding `CC[C@H](C)[C@H](NC(=O)[C@H](CCC(=O)O)NC(=O)[C@H](CO)NC(=O)[C@@H](NC(=O)[C@@H](N)CO)C(C)C)C(=O)N[C@@H](CCC(N)=O)C(=O)N[C@@H](CC(C)C)C(=O)N[C@@H](CCSC)C(=O)N[C@@H](Cc1cnc[nH]1)C(=O)N[C@@H](CC(N)=O)C(=O)N[C@@H](CC(C)C)C(=O)NCC(=O)N[C@@H](CCCCN)C(=O)N[C@H](CC(=O)N[C@@H](CC(C)C)C(=O)N[C@@H](CC(N)=O)C(=O)N[C@@H](CO)C(=O)N[C@@H](CCSC)CC(=O)N[C@@H](CCC(=O)O)C(=O)N[C@@H](CCCNC(=N)N)C(=O)N[C@H](C(=O)N[C@@H](CCC(=O)O)CC(=O)N[C@@H](Cc1c[nH]c2ccccc12)C(=O)N[C@@H](CC(C)C)C(=O)N[C@@H](CCCNC(=N)N)C(=O)N[C@@H](CCCCN)CC(=O)N[C@@H](CCCCN)C(=O)N[C@@H](CC(C)C)C(=O)N[C@@H](CCC(N)=O)C(=O)N[C@@H](CC(=O)O)CC(=O)N[C@H](C(=O)N[C@@H](Cc1cnc[nH]1)C(=O)N[C@@H](CC(N)=O)C(=O)N[C@H](CC(N)=O)Cc1ccccc1)C(C)C)C(C)C)Cc1c[nH]c2ccccc12` [D6], in assay [1] (Table 1), the “cAMP (hPTHR-1) Max” value was 0.87. Also, the “Fold nM PTH(1-34)” value in assay [1] (Table 6) is recorded as 0.76. In addition, in assay [1] (setting [5]), the Max is listed as 189 ± 29 luminescence counts per second × 10^−3 and the pEC50 is 9.89 ± 0.08. In addition, in assay [2], the “cAMP (rPTHR-1) Max” value is 0.76, the concentration giving a half-maximal response (EC50) was found to be 0.33 nM, the “Fold nM PTH(1-34)” value amounted to 0.79 and the Max is on record as 50 ± 15 luminescence counts per second × 10−3. In addition, the “calcemic response” value in assay [3] is recorded as “sustained, with no diminution six hours after injection”. Moreover, in assay [4], the “cAMP response PTH1R/PTH2R” value came to 33.

Take `CC[C@H](C)[C@H](NC(=O)[C@H](CCC(=O)O)NC(=O)[C@H](CO)NC(=O)[C@@H](NC(=O)[C@@H](N)CO)C(C)C)C(=O)N[C@@H](CCC(N)=O)C(=O)N[C@@H](CC(C)C)C(=O)N[C@@H](CCSC)C(=O)N[C@@H](Cc1cnc[nH]1)C(=O)N[C@@H](CC(N)=O)C(=O)N[C@@H](CC(C)C)C(=O)NCC(=O)N[C@@H](CCCCN)C(=O)N[C@@H](Cc1cnc[nH]1)C(=O)N[C@@H](CC(C)C)C(=O)N[C@@H](CC(N)=O)C(=O)N[C@@H](CO)C(=O)N[C@@H](CCSC)C(=O)N[C@@H](CCC(=O)O)C(=O)N[C@@H](CCCN=C(N)N)C(=O)N[C@H](C(=O)N[C@@H](CCC(=O)O)C(=O)N[C@@H](Cc1c[nH]c2ccccc12)C(=O)N[C@@H](CC(C)C)C(=O)N[C@@H](CCCN=C(N)N)C(=O)N[C@@H](CCCCN)C(=O)N[C@@H](CCCCN)C(=O)N[C@@H](CC(C)C)C(=O)N[C@@H](CCC(N)=O)C(=O)N[C@@H](CC(=O)O)C(=O)N[C@H](C(=O)N[C@@H](Cc1cnc[nH]1)C(=O)N[C@@H](CC(N)=O)C(=O)N[C@@H](Cc1ccccc1)C(=O)O)C(C)C)C(C)C` [PTH(1-34), reference compound]: the “cAMP (hPTHR-1) Max” value in assay [1] (Table 1) is recorded as 1.00. The Max in assay [1] (setting [5]) is reported as 217 ± 20 luminescence counts per second × 10^−3. In assay [2], the “cAMP (rPTHR-1) Max” value was 1.00 and the Max is 65 ± 31 luminescence counts per second × 10−3. Besides, the “calcemic response” value in assay [3] was “transient rise in the blood concentration of Ca^2+, which peaks after about one hour”. Also, the “cAMP response PTH2R/PTH1R” value in assay [4] (Table 16) worked out at 1.1. The “cAMP response PTH1R/PTH2R” value in assay [4] is 0.9.

What is called EC50 is the concentration needed to bring the measured effect to its halfway point. Broadly, the pEC50 is the negative decadic logarithm of the EC50, by convention in mol/L. Low readings indicate a high EC50, high ones a low EC50.
